From patent US12077503B2, “Substituted cyclic amides and their use as herbicides” (FMC CORPORATION, priority 2015, dated 2024)

Legend:
Assay type in all cases: in vivo
Kochia (Kochia scoparia) [1] = experiment: Test A preemergence; conditions: Bassia scoparia, pre-emergence, 240 h
Procedure, shortened: (§1)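 Seeds sprayed preemergence with a directed soil spray, or plants at 2 to 10 cm height and one- to two-leaf stage sprayed postemergence, with test chemicals in a non-phytotoxic solvent mixture containing surfactant, in loam soil–sand blend. Injury rated visually against untreated controls after about 10 d in greenhouse, 0 (no effect) to 100 (complete control).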

[2] = test system: barnyardgrass (Echinochloa crus-galli); experiment: Test A preemergence; conditions: Echinochloa crus-galli, pre-emergence, 240 h
Procedure, shortened: as §1

[3] = test system: giant foxtail (Setaria faberii); experiment: Test A preemergence; conditions: Setaria faberi, pre-emergence, 240 h
Procedure, shortened: as §1

[4] = test system: pigweed (Amaranthus retroflexus); experiment: Test A preemergence; conditions: Amaranthus retroflexus, pre-emergence, 240 h
[5] = test system: ragweed (common ragweed, Ambrosia elatior); experiment: Test A preemergence; conditions: Ambrosia artemisiifolia, pre-emergence, 240 h, 125 g ai/ha, Preemergence, visual injury rating after approximately 10 d; read-out: Ragweed plant response rating (0 to 100 scale, 0 is no effect, 100 is complete control)
Procedure, shortened: as §1

[6] = test system: ryegrass, Italian (Italian ryegrass, Lolium multiflorum); experiment: Test A preemergence; conditions: Lolium multiflorum, pre-emergence, 240 h
Procedure, shortened: as §1

[7] = test system: Galium (catchweed bedstraw, Galium aparine); experiment: Test A postemergence; conditions: Galium, post-emergence, 240 h, postemergence, approx. 10 d
Procedure, shortened: as §1

Kochia (Kochia scoparia) [8] = experiment: Test A postemergence; conditions: Bassia scoparia, post-emergence, 240 h, postemergence, approx. 10 d
Procedure, shortened: as §1

[9] = test system: barnyardgrass (Echinochloa crus-galli); experiment: Test A postemergence; conditions: Echinochloa crus-galli, post-emergence, 240 h, read-out: Plant response rating, Barnyardgrass
Procedure, shortened: as §1

[10] = test system: blackgrass (Alopecurus myosuroides); experiment: Test A postemergence; conditions: Alopecurus myosuroides, post-emergence, 240 h, read-out: Plant response rating, Blackgrass
Procedure, shortened: as §1

corn (Zea mays) = experiment: Test A postemergence; conditions: Zea mays, post-emergence, 240 h
Procedure, shortened: as §1

[11] = test system: giant foxtail (Setaria faberii); experiment: Test A postemergence; conditions: Setaria faberi, post-emergence, 240 h, postemergence, approx. 10 d
Procedure, shortened: as §1

[12] = test system: pigweed (Amaranthus retroflexus); experiment: Test A postemergence; conditions: Amaranthus retroflexus, post-emergence, 240 h, postemergence, approx. 10 d
Procedure, shortened: as §1

[13] = test system: ragweed (common ragweed, Ambrosia elatior); experiment: Test A postemergence; conditions: Ambrosia artemisiifolia, post-emergence, 240 h, postemergence, approx. 10 d
Procedure, shortened: as §1

[14] = test system: ryegrass, Italian (Italian ryegrass, Lolium multiflorum); experiment: Test A postemergence; conditions: Lolium multiflorum, post-emergence, 240 h, postemergence, approx. 10 d
Procedure, shortened: as §1

[15] = test system: wheat (Triticum aestivum); experiment: Test A postemergence; conditions: Triticum aestivum, post-emergence, 240 h, postemergence, approx. 10 d
Procedure, shortened: as §1

[16] = 125 g ai/ha, Postemergence, visual injury after approximately 10 d, 0 to 100 scale where 0 is no effect and 100 is complete control
[17] = 500 g ai/ha, postemergence, visual injury, 0 to 100 scale (0 no effect, 100 complete control), approx. 10 d

Structure (SMILES): CC(C)COc1cccc([C@H]2CN(C)C(=O)[C@@H]2C(=O)Nc2ccccc2F)c1 [Compound 1028]
- pest or weed control at 125 g/ha (Kochia (Kochia scoparia) [1]; 125 g ai/ha, Preemergence, visual injury rating after approximately 10 d, read-out: Kochia plant response rating (0 to 100 scale, 0 is no effect, 100 is complete control)): 0%
- pest or weed control at 500 g/ha (Kochia (Kochia scoparia) [1]; 500 g ai/ha, preemergence, visual injury rating about 10 d after treatment, 0 to 100 scale (0 no effect, 100 complete control), read-out: Kochia plant response rating): 60%
- pest or weed control at 125 g/ha ([2]; 125 g ai/ha, Preemergence, visual injury rating after approximately 10 d, read-out: Barnyardgrass plant response rating (0 to 100 scale, 0 is no effect, 100 is complete control)): 90%
- pest or weed control at 500 g/ha ([2]; 500 g ai/ha, preemergence, visual injury rating about 10 d after treatment, 0 to 100 scale (0 no effect, 100 complete control), read-out: Barnyardgrass plant response rating): 90%
- pest or weed control at 125 g/ha ([3]; 125 g ai/ha, Preemergence, visual injury rating after approximately 10 d, read-out: Foxtail, Giant plant response rating (0 to 100 scale, 0 is no effect, 100 is complete control)): 90%
- pest or weed control at 500 g/ha ([3]; 500 g ai/ha, preemergence, visual injury rating about 10 d after treatment, 0 to 100 scale (0 no effect, 100 complete control), read-out: Foxtail, Giant plant response rating): 90%
- pest or weed control at 125 g/ha ([4]; 125 g ai/ha, Preemergence, visual injury rating after approximately 10 d, read-out: Pigweed plant response rating (0 to 100 scale, 0 is no effect, 100 is complete control)): 0%
- pest or weed control at 500 g/ha ([4]; 500 g ai/ha, preemergence, visual injury rating about 10 d after treatment, 0 to 100 scale (0 no effect, 100 complete control), read-out: Pigweed plant response rating): 0%
- pest or weed control at 125 g/ha [5]: 0%
- pest or weed control at 125 g/ha ([6]; 125 g ai/ha, Preemergence, visual injury rating after approximately 10 d, read-out: Ryegrass, Italian plant response rating (0 to 100 scale, 0 is no effect, 100 is complete control)): 30%
- pest or weed control at 500 g/ha ([6]; 500 g ai/ha, preemergence, visual injury rating about 10 d after treatment, 0 to 100 scale (0 no effect, 100 complete control), read-out: Ryegrass, Italian plant response rating): 30%
- pest or weed control at 125 g/ha ([7]; 125 g ai/ha, visual injury on 0 to 100 scale (0 no effect, 100 complete control), read-out: Galium plant response rating): 40%
- pest or weed control at 500 g/ha ([7]; 500 g ai/ha, visual injury, 0 to 100 scale (0 no effect, 100 complete control), read-out: Plant response rating, Galium): 50%
- pest or weed control at 125 g/ha (Kochia (Kochia scoparia) [8]; 125 g ai/ha, visual injury on 0 to 100 scale (0 no effect, 100 complete control), read-out: Kochia plant response rating): 0%
- pest or weed control at 500 g/ha (Kochia (Kochia scoparia) [8]; 500 g ai/ha, visual injury, 0 to 100 scale (0 no effect, 100 complete control), read-out: Plant response rating, Kochia): 0%
- pest or weed control at 125 g/ha [9, 16]: 80%
- pest or weed control at 500 g/ha [9, 17]: 90%
- pest or weed control at 125 g/ha [10, 16]: 30%
- pest or weed control at 500 g/ha [10, 17]: 40%
- Corn plant response rating (crop injury, 0 = no effect, 100 = complete kill) at 125 g/ha (corn (Zea mays); [16]): 0%
- Corn plant response rating (crop injury, 0 = no effect, 100 = complete kill) at 500 g/ha (corn (Zea mays); [17]): 30%
- pest or weed control at 125 g/ha ([11]; 125 g ai/ha, visual injury on 0 to 100 scale (0 no effect, 100 complete control), read-out: Foxtail, Giant plant response rating): 80%
- pest or weed control at 500 g/ha ([11]; 500 g ai/ha, visual injury, 0 to 100 scale (0 no effect, 100 complete control), read-out: Plant response rating, Foxtail, Giant): 80%
- pest or weed control at 125 g/ha ([12]; 125 g ai/ha, visual injury on 0 to 100 scale (0 no effect, 100 complete control), read-out: Pigweed plant response rating): 0%
- pest or weed control at 500 g/ha ([12]; 500 g ai/ha, visual injury, 0 to 100 scale (0 no effect, 100 complete control), read-out: Plant response rating, Pigweed): 0%
- pest or weed control at 125 g/ha ([13]; 125 g ai/ha, visual injury on 0 to 100 scale (0 no effect, 100 complete control), read-out: Ragweed plant response rating): 0%
- pest or weed control at 500 g/ha ([13]; 500 g ai/ha, visual injury, 0 to 100 scale (0 no effect, 100 complete control), read-out: Plant response rating, Ragweed): 0%
- pest or weed control at 125 g/ha ([14]; 125 g ai/ha, visual injury on 0 to 100 scale (0 no effect, 100 complete control), read-out: Ryegrass, Italian plant response rating): 0%
- pest or weed control at 500 g/ha ([14]; 500 g ai/ha, visual injury, 0 to 100 scale (0 no effect, 100 complete control), read-out: Plant response rating, Ryegrass, Italian): 40%
- plant injury at 125 g/ha ([15]; 125 g ai/ha, visual injury on 0 to 100 scale (0 no effect, 100 complete control), read-out: Wheat plant response rating): 0%
- plant injury at 500 g/ha ([15]; 500 g ai/ha, visual injury, 0 to 100 scale (0 no effect, 100 complete control), read-out: Plant response rating, Wheat): 40%
